Patent US7098364B2, “Phenylethanolamine compounds as β2-receptor agonists, and methods of use and preparation thereof” (Shenyang Pharmaceutical University, priority 2001, dated 2006)

Test system: isolated guinea pig trachea strips
Experiment: Antagonistic effect on histamine-induced bronchoconstriction in isolated guinea pig trachea strips
Type: cell-based
Conditions: trachea strips contracted by histamine (10^-6-10^-4 M) to 50% of maximum contraction; compounds at 10^-6 or 3×10^-4 M; Krebs-Hensleit solution, 37° C.
Description: The antagonistic effects of bronchoconstrtriction induced by histamine of the compounds of the present invention were evaluated by isolated guinea pig trachea strips.
Apparatus: polygrapher recorder, strain gauge transducer
Conditions: Krebs-Hensleit solution; gas mixture(95% O2, 5% CO2); Paper speed: 4 mm/min; 37° C.
Animals: guinea pigs (Harley, purchased from the Experimental Animal Center of China Medical University) of either sex weighting 350–500 g were used.
Reagent: Histamines phosphate solution(10^−6–10^−4M)
Method: Guinea pigs were sacrificed and the trachea strips(2 cm×3 mm) were prepared; the preparation was then mounted under a testing tension of 2 g in an organ bath containing 10 mL Kebs-Hensleits solution at 37° C. and superfused with the gas mixture mentioned above and the preparation was allowed to equilibrate for 2 h before the addition of histamine. When the tension of trachea strips reached 50% of the maximum contraction, the tested compounds was added to bath, and the antagonistic effect (represented as relaxing rate) was calculated as below: Relaxing rate=(Contraction intensity after histamine addition-Contraction intensity after tested compounds addition)/[…]×100%

In the case of `CC(C)NC(CO)c1cc(Cl)c(N)c(C(F)(F)F)c1.Cl` (stereo not drawn), the “Relaxing rate (%)” value is reported as 52.5%.
For `Cl.Nc1c(Br)cc(C(CO)NC2CC2)cc1C(F)(F)F` (stereo not drawn), the “Relaxing rate (%)” value was 10.2%.
For `Cl.N#Cc1cc(C(CO)NC2CCC2)cc(Cl)c1N` (stereo not drawn), the “Relaxing rate (%)” value was 36.7%.
`CC(C)NC(CO)c1cc(Br)c(N)c(C#N)c1.Cl` (stereo not drawn) was tested, and the “Relaxing rate (%)” value was 77.6%.
For `Cl.Cl.N#Cc1cc(C(CO)NC2CCC2)cc(Br)c1N` (stereo not drawn), the “Relaxing rate (%)” value was 30.8%.
`Cl.N#Cc1cc(C(CO)NC2CCC2)ccc1N` (stereo not drawn) was tested, and the “Relaxing rate (%)” value was 18.9%.
`CC(C)NC(CO)c1ccc(N)c(C#N)c1.Cl` (stereo not drawn) was tested, and the “Relaxing rate (%)” value was 60.3%.
For `Cl.Nc1c(Br)cc(C(CO)NC2CCC2)cc1C(F)(F)F` (stereo not drawn), the “Relaxing rate (%)” value was 12.9%.
`CC(C)(CO)NC(CO)c1cc(Cl)c(N)c(C(F)(F)F)c1.Cl` (stereo not drawn) was tested, and the “Relaxing rate (%)” value was 85.1%.
In the case of `CC(C)(CO)NC(CO)c1cc(Br)c(N)c(C(F)(F)F)c1.Cl` (stereo not drawn), the “Relaxing rate (%)” value is reported as 128.2%.
With `CC(C)(CO)NC(CO)c1cc(Cl)c(N)c(C#N)c1.Cl.Cl` (stereo not drawn) the “Relaxing rate (%)” value was 15.3%.
In the case of `CC(C)(C)NC(CO)c1ccc(N)c(C(F)(F)F)c1.Cl` (stereo not drawn), the “Relaxing rate (%)” value is reported as 55.6%.
In the case of `Cl.Cl.N#Cc1cc(C(CO)NC2CC2)ccc1N` (stereo not drawn), the “Relaxing rate (%)” value is reported as 15.7%.
In the case of `CC(C)(CO)NC(CO)c1cc(Br)c(N)c(C#N)c1.Cl` (stereo not drawn), the “Relaxing rate (%)” value is reported as 89.6%.
In the case of `CC(C)(CO)NC(CO)c1ccc(N)c(C#N)c1.Cl` (stereo not drawn), the “Relaxing rate (%)” value is reported as 65.3%.
With `Br.CC(C)(C)NC(CO)c1cc(Cl)c(N)c(C(F)(F)F)c1` (stereo not drawn) the “Relaxing rate (%)” value was 165.9%.
With `CC(C)NC(CO)c1cc(Cl)c(N)c(C#N)c1.Cl.Cl` (stereo not drawn) [drawing 7] the “Relaxing rate (%)” value was 69.2%.
With `CC(C)NC(CO)c1cc(Cl)c(N)c(C#N)c1.Cl.Cl` (stereo not drawn) [drawing 20] the “Relaxing rate (%)” value was 70.5%.
